{"source": "patent US20020156023A1", "about": "“Lometrexol combination therapy” (Tularik Inc., priority 2000, published 2002)", "key": {"[1]": {"assay": "Storage stability of drug product / reconstituted solution", "assay_type": "physicochemical", "conditions": "reconstituted with 0.9% sodium chloride to approximately 10 mg/mL; vials contain no preservative", "description": "Lometrexol sodium for injection is supplied for the study as a lyophilised off-white crystalline solid in single-use vials containing either 50 mg or 200 mg of lometrexol sodium. Vials are stored at room temperature and protected from light. Lometrexol sodium is reconstituted with 0.9% sodium chloride for injection to a concentration of approximately 10 mg/mL. […] Lometrexol sodium is not known to be a vesicant. Lometrexol sodium is administered on Day 1 of every 21-day cycle as a rapid (i.e., 30 to 60 seconds) intravenous bolus immediately prior to the dose of carboplatin. At each dose level shown in Table 1, the appropriate dose of lometrexol sodium is based on the patient's actual calculated body surface area (BSA) at the beginning of each cycle. Note: If the patient's BSA is >2.0 m^2 the dose is calculated using a maximum BSA of 2.0 m^2.\nDoxorubicin HCl is available commercially available from several manufacturers in liquid or lyophilised form. The lyophilised powder is stable for 2 years when stored at room temperature and away from direct light. The commercial solution formulations must be stored under refrigeration. […] At each dose level shown in Table 2, the appropriate dose of doxorubicin is based on the patient's actual calculated body surface area (BSA) at the beginning of each 21-day cycle. […]"}, "[2]": {"system": "A549 cells", "assay": "MTT cell proliferation assay, kinase inhibitor plus lometrexol, A549 cells", "assay_type": "cell-based", "conditions": "for IC50 in A549 cells in the presence of increasing concentrations of lometrexol: 48 hours incubation, MTT, IC50 calculated from the untreated cells, FIG. 1 and FIG. 2", "description": "(§1) A549 and MDA-MB-231 cells were obtained from the ATCC. Cells were propagated in 75 cm^2 flasks in RPMI 1640 medium with 10% fetal bovine serum, 1% penicillin/streptomycin, and 1% glutamine. To initiate the experiment, cells were plated into 96-well plates at 3000 cells/well with the top and bottom rows containing media only as a negative control. The cells were incubated at 37° C. for 15 hours to allow the cells to adhere. After 15 hours, freshly prepared solutions of lometrexol and the appropriate kinase inhibitor (AG1478 or indirubin-3′-monoxime) at the desired dose were added to the media in varying concentrations in a 5×8 matrix of concentrations. Each plate also contained wells that contained medium only and no added compound. The cells were then incubated for 48 hours with the compounds. The relative cell number was determined using the cell proliferation assay reagent MTT. This reagent is converted by mitochondrial dehydrogenases to a colored formazan product that is then quantified by spectrophotometric analysis. […] The relative effect of the compounds was determined by the percentage of the untreated control cells.\nThe IC50 value was calculated from the untreated cells. […]. […] The data are presented as % growth relative to cells treated with lometrexol alone. The total incubation time with the compounds was 48 hours."}, "[3]": {"conditions": "cited from earlier work"}, "[4]": {"conditions": "cited from earlier work", "remark": "listed apart in the source"}, "[5]": {"system": "MDA-MB-231 cells", "assay": "MTT cell proliferation assay, kinase inhibitor plus lometrexol, MDA-MB-231 cells", "assay_type": "cell-based", "conditions": "showing only mild growth inhibition by EGF", "description": "as §1, with “cells. […]” for “cells.”"}, "[6]": {"system": "phosphorylated EGFR", "assay": "EGFR phosphorylation in stimulated A549 cells (immunoprecipitation, western blot, densitometry)", "assay_type": "cell-based", "conditions": "24 hours, then 10% fetal bovine serum + 50 ng/ml EGF for 3 hours, FIG. 4", "description": "The A549 lung adenocarcinoma cell line was grown under normal cell culture conditions. The cells were plated in 100 mm^2 dishes in RPMI 1640 culture medium containing 1% penicillin/streptomycin, 1% glutamine and 10% fetal bovine serum. The cells were allowed to grow to >95% confluence. Thereafter, the cells were rinsed twice with phosphate-buffered saline followed by the addition of low-serum medium (RPMI 1640 with 1% penicillin/streptomycin and 0.5% fetal bovine serum).\nLometrexol was added in amounts sufficient to achieve incubation concentrations of 0.004, 0.02, 0.1, 0.5 and 2.5 μg/ml. The cells were incubated in the low-serum medium with lometrexol for 24 hours. After the 24-hour incubation, the concentration of fetal bovine serum was increased to 10%, and 50 ng/ml EGF was added to the cells in the presence of lometrexol. The cells were incubated with these stimulants (fetal bovine serum and EGF) for 3 hours. […] The immunoprecipitated protein was separated by SDS-PAGE, and the amount of phosphorylated EGFR was determined by western blot analysis of the resulting gel using chemiluminescent detection. The blot was probed with an antibody that is specific for the activated, phosphorylated form of EGFR (Chemicon, Temecula, Calif.), and the resulting photographic film was analyzed by densitometry."}, "[7]": {"system": "ATP concentration in A549 cells", "assay": "Cellular ATP by luminescent method CellTiter Glo in A549 cells", "assay_type": "cell-based", "conditions": "24 hours incubation with lometrexol, FIG. 5, average of triplicate measurements", "description": "A549 cells were propagated in 75 cm^2 flasks in RPMI 1640 medium with 10% fetal bovine serum, 1% penicillin/streptomycin, and 1% glutamine. To initiate the experiment, cells were plated into 96-well plates at 3000 and 10,000 cells/well with the top and bottom rows containing media only as a negative control. The cells were incubated at 37° C. for 15 hours to allow the cells to adhere. After 15 hours, freshly prepared solutions of lometrexol at the desired dose were added to the media in varying concentrations. Each plate also contained wells that contained medium only and no added compound. The cells were then incubated for 24 hours and the amount of ATP was determined by a luminescent method, CellTiter Glo™ (Promega, Madison, Wis.). Concurrently, the cell number was determined in duplicate rows so that the relative ATP concentration per number of cells could be determined. As depicted in FIG. 5 (average of triplicate measurements), the ATP concentration per million cells was decreased in cells treated with lometrexol at concentrations similar to those where the EGFR phosphorylation was effected and at concentrations similar to those which potentiate kinase inhibitors."}}, "note": "Structures can show the parent of a compound that is named as a salt."}
{"molecule": "Nc1nc2c(c(=O)[nH]1)C[C@@H](CCc1ccc(C(=O)N[C@@H](CCC(=O)O)C(=O)O)cc1)CN2", "note": "[Lometrexol sodium]", "values": [{"measurement": "time to use after reconstitution", "setting": "[1]", "value": "≤ 1", "unit": "h"}]}
{"molecule": "indirubin-3′-monoxime", "values": [{"measurement": "IC50 in A549 cells in the presence of increasing concentrations of lometrexol", "setting": "[2]", "value": "decrease in IC50"}]}
{"molecule": "Nc1ccn([C@@H]2O[C@H](CO)[C@@H](O)C2(F)F)c(=O)n1", "note": "[Gemcitabine HCl]", "values": [{"measurement": "solubility in ethanol and polar organic solvents", "setting": "[3]; ethanol and polar organic solvents", "value": "insoluble"}, {"measurement": "solubility in methanol", "setting": "[3]; methanol", "value": "slightly soluble"}, {"measurement": "solubility in water", "setting": "[3]; water", "value": "soluble"}]}
{"molecule": "COc1cccc2c1C(=O)c1c(O)c3c(c(O)c1C2=O)C[C@@](O)(C(=O)CO)C[C@@H]3O[C@H]1C[C@H](N)[C@H](O)[C@H](C)O1", "note": "[Doxorubicin HCl]", "values": [{"measurement": "storage time of reconstituted solution", "setting": "[4]; reconstituted with sterile water for injection or 0.9% sodium chloride", "value": "up to 24 hours"}, {"measurement": "stability of lyophilised powder", "setting": "[4]; stored at room temperature and away from direct light", "value": 2, "unit": "years"}]}
{"molecule": "COc1cc2ncnc(Nc3cccc(Cl)c3)c2cc1OC", "note": "[tyrphostin AG1478, 4-(3-chloroanilino)-6,7-dimethoxyquinazoline]", "values": [{"measurement": "IC50 in A549 cells in the presence of increasing concentrations of lometrexol", "setting": "[2]", "value": "decrease in IC50"}]}
{"molecule": "Nc1nc2c(c(=O)[nH]1)CC(CCc1ccc(C(=O)N[C@@H](CCC(=O)O)C(=O)O)cc1)CN2", "note": "(stereo partly shown) [lometrexol, 5,10-dideazatetrahydrofolic acid]", "values": [{"measurement": "lometrexol potentiation of kinase inhibitor growth inhibition", "setting": "[2]; cell line sensitive to EGF stimulation", "value": "potentiation is observed"}, {"measurement": "lometrexol potentiation of kinase inhibitor growth inhibition", "setting": "[5]", "value": "no observed potentiation"}, {"measurement": "relative amount of phosphorylated-EGFR per mg protein in the cell lysate", "setting": "[6]; lometrexol 0.004, 0.02 and 0.1 μg/ml", "value": "37-56 % of control"}, {"measurement": "relative phosphorylated-EGFR", "setting": "[6]; lometrexol 0.5 and 2.5 μg/ml", "value": "≥ 3 % of the activated-control"}, {"measurement": "ATP concentration per million cells", "setting": "[7]", "value": "decreased"}]}
